This passage reports IC50 results from US12145944B2, “Imidazopyrimidines as EED inhibitors and the use thereof” (THE REGENTS OF THE UNIVERSITY OF MICHIGAN, priority 2019, dated 2024).

Like-named read-outs stand apart in the source and are kept apart here.

One assay addresses T1, EED (1-441)-His protein (Homo sapiens, UniProt O75530).
T1 construct: 20 nM EED (1-441)-His protein
Description: EED-H3K27Me3 peptide competition binding assay by AlphaScreen. On the procedure:
“N/A” stands for “not assessed”.
EED-H3K27Me3 peptide competition binding assay by AlphaScreen (α-screen)
2.5 μl of solutions containing 20 nM biotin-H3K27Me3 (19-33) peptide in the buffer (25 mM HEPES, pH 8, 0.02% Tween-20, 0.5% BSA) were added to the wells and then incubated with compound for 30 min. […] Then 10 μl of the detection beads mix was added to the plate and incubated in the dark at RT for 1 h. The final concentration of donor and acceptor beads was 10 μg/ml for each. […] The data were then fit to a dose response equation to get the IC50 values.
On the technique in general: Bead proximity is the source of the signal in Alpha formats.

Assay [1] has as its system KARPAS422 human B cell lymphoma cell. The assay can be described thus: Cell proliferation, KARPAS422, 7 day treatment (WST-8). The format is cell-based. The essentials: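 Read-out was WST-8 absorbance at 450 nm after 1-4 h with reagent, taken after 7-day compound treatment (serial dilutions, 37 °C, 5% CO2) of 2 000-3 000 KARPAS422 cells per well. IC50 fitted by nonlinear regression on DMSO-normalized values.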

Setting [2] is: EED Alpha screen binding assay, read-out: Alpha screen.
Setting [3] is: Homo sapiens, KARPAS-422, 168 h, anti-proliferative IC50, Karpas 422 cell line, 7 day treatment, read-out: Karpas Cell line.
[4] abbreviates: Homo sapiens, KARPAS-422, 168 h, read-out: Karpas Cell line (nM).
The mark [5] stands for this setting: anti-proliferative IC50, Karpas 422 cell line, 7 day treatment, read-out: Karpas Cell line.

T1 sequence (O75530 whole entry): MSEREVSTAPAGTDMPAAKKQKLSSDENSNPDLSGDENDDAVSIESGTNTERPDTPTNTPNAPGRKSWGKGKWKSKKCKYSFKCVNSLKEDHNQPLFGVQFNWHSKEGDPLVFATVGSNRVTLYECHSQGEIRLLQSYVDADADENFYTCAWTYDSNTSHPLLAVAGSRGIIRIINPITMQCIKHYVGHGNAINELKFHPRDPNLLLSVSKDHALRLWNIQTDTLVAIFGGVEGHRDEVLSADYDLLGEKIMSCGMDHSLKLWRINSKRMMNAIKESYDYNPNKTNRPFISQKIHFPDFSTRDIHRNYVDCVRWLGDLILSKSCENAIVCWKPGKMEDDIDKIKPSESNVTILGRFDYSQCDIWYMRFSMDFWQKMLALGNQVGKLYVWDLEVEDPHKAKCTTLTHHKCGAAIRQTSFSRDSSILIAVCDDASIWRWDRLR

With `CP(C)(=O)c1ncn2c(NCc3c(F)ccc4c3CCO4)ncc(-c3ccc(C(F)F)nc3)c12` [compound 117, (8-(6-(difluoromethyl)pyridin-3-yl)-5-(((5-fluoro-2,3-dihydrobenzofuran-4-yl)methyl)amino)imidazo[1,5-c]pyrimidin-1-yl)dimethylphosphine oxide], the IC50 at EED (1-441)-His protein (setting [2]) was found to be 0.19 nM; in assay [1] (setting [3]) it was 19.5 nM.

For the compound `Fc1ccc2c(c1CNc1ncc(-c3ccc(C(F)(F)F)cc3)c3c(C(F)(F)F)ncn13)CCO2` [compound 113, N-((5-fluoro-2,3-dihydrobenzofuran-4-yl)methyl)-1-(trifluoromethyl)-8-(4-(trifluoromethyl)phenyl)imidazo[1,5-c]pyrimidin-5-amine], the IC50 on EED (1-441)-His protein (setting [2]) was 0.98 nM; in assay [1] (setting [3]), more than 100 nM.

For the compound `CS(=O)(=O)c1ncn2c(NCc3c(F)ccc4c3CCO4)ncc(-c3ccc(C(F)F)nc3)c12` [compound 107, 8-(6-(difluoromethyl)pyridin-3-yl)-N-((5-fluoro-2,3-dihydrobenzofuran-4-yl)methyl)-1-(methylsulfonyl)imidazo[1,5-c]pyrimidin-5-amine], the IC50 on EED (1-441)-His protein was determined as 0.215 nM; in assay [1] (setting [4]), 2.84 nM.

Turning to `CCP(=O)(CC)c1ncn2c(NCc3c(F)ccc4c3CCO4)ncc(-c3ccc(F)cc3)c12` [compound 124, diethyl(5-(((5-fluoro-2,3-dihydrobenzofuran-4-yl)methyl)amino)-8-(4-fluorophenyl)imidazo[1,5-c]pyrimidin-1-yl)phosphine oxide], the figures for the IC50 (on EED (1-441)-His protein (setting [2]); in assay [1] (setting [3])) were 8.04 nM and 72 nM, respectively.

For the compound `Cc1cc(S(C)(=O)=O)ccc1-c1cnc(NCc2c(F)ccc3c2CCO3)n2cnc(S(C)(=O)=O)c12` [compound 110, N-((5-fluoro-2,3-dihydrobenzofuran-4-yl)methyl)-8-(2-methyl-4-(methylsulfonyl)phenyl)-1-(methylsulfonyl)imidazo[1,5-c]pyrimidin-5-amine], the IC50 on EED (1-441)-His protein (setting [2]) stood at 0.47 nM; in assay [1] (setting [4]), 3.93 nM.

In the case of “7-fluoro-12-(((5-fluoro-2,3-dihydrobenzofuran-4- yl)methyl)amino)-4-(2-fluoro-2-methylpropyl)-4,5- dihydro-3H-2,4,11,12a- tetraazabenzo[4,5]cycloocta[1,2,3-cd]inden-3-one [compound 78]”, the IC50 on EED (1-441)-His protein (setting [2]) worked out at 3.23 nM; in assay [1] (setting [5]) it was 34.5 nM.

Consider `Cc1ccc(-c2cnc(NCc3c(F)ccc4c3CCO4)n3cnc(S(C)(=O)=O)c23)c(C)n1` [compound 108, 8-(2,6-dimethylpyridin-3-yl)-N-((5-fluoro-2,3-dihydrobenzofuran-4-yl)methyl)-1-(methylsulfonyl)imidazo[1,5-c]pyrimidin-5-amine], for which the IC50 on EED (1-441)-His protein (setting [2]) is 0.421 nM; in assay [1] (setting [4]), 6.89 nM.

For `CP(C)(=O)c1ncn2c(NCc3c(F)ccc4c3CCO4)ncc(-c3ccc(F)cc3)c12` [compound 118, (5-(((5-fluoro-2,3-dihydrobenzofuran-4-yl)methyl)amino)-8-(4-fluorophenyl)imidazo[1,5-c]pyrimidin-1-yl)dimethylphosphine oxide], the IC50 was found to be 0.27 nM on EED (1-441)-His protein (setting [2]) and 28.4 nM in assay [1] (setting [3]).

For the compound `CCP(=O)(CC)c1ncn2c(NCc3c(F)ccc4c3CCO4)ncc(-c3ccc(C)nc3C)c12` [compound 125, (8-(2,6-dimethylpyridin-3-yl)-5-(((5-fluoro-2,3-dihydrobenzofuran-4-yl)methyl)amino)imidazo[1,5-c]pyrimidin-1-yl)diethylphosphine oxide], the IC50 worked out at 27.6 nM on EED (1-441)-His protein (setting [2]) and 91.7 nM in assay [1] (setting [3]).

In the case of `CS(=O)(=O)c1ncn2c(NCc3c(F)ccc4c3CCO4)ncc(-c3ccc(C4CC4)nc3)c12` [compound 111, 8-(6-cyclopropylpyridin-3-yl)-N-((5-fluoro-2,3-dihydrobenzofuran-4-yl)methyl)-1-(methylsulfonyl)imidazo[1,5-c]pyrimidin-5-amine], the figures for the IC50 (on EED (1-441)-His protein (setting [2]); in assay [1] (setting [4])) were 0.34 nM and 1.42 nM, respectively.

Turning to “4-(2,2-difluoroethyl)-7-fluoro-12-(((5-fluoro-2,3- dihydrobenzofuran-4-yl)methyl)amino)-4,5-dihydro- 3H-2,4,11,12a-tetraazabenzo[4,5]cycloocta[1,2,3- cd]inden-3-one [compound 80]”, the IC50 came to 1.61 nM at EED (1-441)-His protein (setting [2]) and 2.42 nM in assay [1] (setting [5]).

Regarding `Cc1nc(C(F)(F)F)ccc1-c1cnc(NCc2c(F)ccc3c2CCO3)n2cnc(S(C)(=O)=O)c12` [compound 109, N-((5-fluoro-2,3-dihydrobenzofuran-4-yl)methyl)-8-(2-methyl-6-(trifluoromethyl)pyridin-3-yl)-1-(methylsulfonyl)imidazo[1,5-c]pyrimidin-5-amine], the IC50 is 0.53 nM on EED (1-441)-His protein (setting [2]) and 10.9 nM in assay [1] (setting [4]).

`Cn1cc(-c2cnc(NCc3c(F)ccc4c3CCO4)n3cnc(S(C)(=O)=O)c23)cn1` [compound 106, N-((5-fluoro-2,3-dihydrobenzofuran-4-yl)methyl)-8-(1-methyl-1H-pyrazol-4-yl)-1-(methylsulfonyl)imidazo[1,5-c]pyrimidin-5-amine]: the IC50 on EED (1-441)-His protein (setting [2]) was 0.556 nM; in assay [1] (setting [4]) it was 10.6 nM.

On to `CS(=O)(=O)c1ncn2c(NCc3c(F)ccc4c3CCO4)ncc(-c3ccc(F)cc3)c12` [compound 104, N-((5-fluoro-2,3-dihydrobenzofuran-4-yl)methyl)-8-(4-fluorophenyl)-1 (methylsulfonyl)imidazo[1,5-c]pyrimidin-5-amine], for which the IC50 at EED (1-441)-His protein (setting [2]) was determined as 0.59 nM; in assay [1] (setting [4]), 8.1 nM.

In the case of `CCP(=O)(CC)c1ncn2c(NCc3c(F)ccc4c3CCO4)ncc(-c3ccc(C(F)(F)F)nc3)c12` [compound 120, diethyl(5-(((5-fluoro-2,3-dihydrobenzofuran-4-yl)methyl)amino)-8-(6-(trifluoromethyl)pyridin-3-yl)imidazo[1,5-c]pyrimidin-1-yl)phosphine oxide], the IC50 on EED (1-441)-His protein (setting [2]) is 1.15 nM; in assay [1] (setting [3]) it was more than 100 nM.

For the compound `CP(C)(=O)c1ncn2c(NCc3c(F)ccc4c3CCO4)ncc(-c3ccc(C(F)(F)F)nc3)c12` [compound 119, (5-(((5-fluoro-2,3-dihydrobenzofuran-4-yl)methyl)amino)-8-(6-(trifluoromethyl)pyridin-3-yl)imidazo[1,5-c]pyrimidin-1-yl)dimethylphosphine oxide], the IC50 at EED (1-441)-His protein (setting [2]) amounted to 0.2 nM; in assay [1] (setting [3]), 27.9 nM.

In the case of `CS(=O)(=O)c1ccc(-c2cnc(NCc3c(F)ccc4c3CCO4)n3cnc(C(F)(F)F)c23)cc1` [compound 112, N-((5-fluoro-2,3-dihydrobenzofuran-4-yl)methyl)-8-(4-(methylsulfonyl)phenyl)-1-(trifluoromethyl)imidazo[1,5-c]pyrimidin-5-amine], the IC50 on EED (1-441)-His protein (setting [2]) amounted to 0.83 nM; in assay [1] (setting [3]), 20.3 nM.

With `Fc1ccc(-c2cnc(NCc3c(F)ccc4c3CCO4)n3cnc(C(F)(F)F)c23)cc1` [compound 114, N-((5-fluoro-2,3-dihydrobenzofuran-4-yl)methyl)-8-(4-fluorophenyl)-1-(trifluoromethyl)imidazo[1,5-c]pyrimidin-5-amine], the results for the IC50 (at EED (1-441)-His protein (setting [2]); in assay [1] (setting [3])) were 1.48 nM and more than 100 nM, respectively.

As to `Fc1ccc2c(c1CNc1ncc(-c3ccc(C(F)(F)F)nc3)c3c(C(F)(F)F)ncn13)CCO2` [compound 116, N-((5-fluoro-2,3-dihydrobenzofuran-4-yl)methyl)-1-(trifluoromethyl)-8-(6-(trifluoromethyl)pyridin-3-yl)imidazo[1,5-c]pyrimidin-5-amine], the IC50 is 1.98 nM on EED (1-441)-His protein (setting [2]) and more than 100 nM in assay [1] (setting [3]).

With `Cc1ccc(-c2cnc(NCc3c(F)ccc4c3CCO4)n3cnc(C(F)(F)F)c23)c(C)n1` [compound 115, 8-(2,6-dimethylpyridin-3-yl)-N-((5-fluoro-2,3-dihydrobenzofuran-4-yl)methyl)-1-(trifluoromethyl)imidazo[1,5-c]pyrimidin-5-amine], the IC50 is 2.35 nM on EED (1-441)-His protein (setting [2]) and 50.1 nM in assay [1] (setting [3]).

Take “7-fluoro-12-(((5-fluoro-2,3-dihydrobenzofuran-4- yl)methyl)amino)-4-(2-fluoroethyl)-4,5-dihydro-3H- 2,4,11,12a-tetraazabenzo[4,5]cycloocta[1,2,3- cd]inden-3-one [compound 79]”: the results for the IC50 (at EED (1-441)-His protein (setting [2]); in assay [1] (setting [5])) were 1.61 nM and 15.3 nM, respectively.

Consider `CCP(=O)(CC)c1ncn2c(NCc3c(F)ccc4c3CCO4)ncc(-c3ccc(S(C)(=O)=O)cc3)c12` [compound 122, diethyl(5-(((5-fluoro-2,3-dihydrobenzofuran-4-yl)methyl)amino)-8-(4-(methylsulfonyl)phenyl)imidazo[1,5-c]pyrimidin-1-yl)phosphine oxide], for which the results for the IC50 (at EED (1-441)-His protein (setting [2]); in assay [1] (setting [3])) were 0.31 nM and more than 100 nM, respectively.

“7-fluoro-12-(((5-fluoro-2,3-dihydrobenzofuran-4- yl)methyl)amino)-4-(1-methylpiperidin-4-yl)-4,5- dihydro-3H-2,4,11,12a- tetraazabenzo[4,5]cycloocta[1,2,3-cd]inden-3-one [compound 75]”: the results for the IC50 (at EED (1-441)-His protein (setting [2]); in assay [1] (setting [5])) were 1.72 nM and 11.1 nM, respectively.

As to `Cc1ccc(-c2cnc(NCc3c(F)ccc4c3CCO4)n3cnc(P(C)(C)=O)c23)c(C)n1` [compound 123, (8-(2,6-dimethylpyridin-3-yl)-5-(((5-fluoro-2,3-dihydrobenzofuran-4-yl)methyl)amino)imidazo[1,5-c]pyrimidin-1-yl)dimethylphosphine oxide], the IC50 at EED (1-441)-His protein (setting [2]) worked out at 4.74 nM; in assay [1] (setting [3]) it was 22.9 nM.
